Like-named read-outs stand apart in the source and are kept apart here.
Biological target: T1, BRM (Homo sapiens, UniProt P51531)
T1 construct: In-Cell Western Screen of BRM Degradation in SW1573 Cells; endogenous in cells; host or cells: SW1573
Assay: In-cell Western screen of BRM degradation in SW1573 cells (Dmax and DC50)
Format: cell-based
Method in brief: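 Adherent SW1573 cultures exposed to test compounds for 18-20 h were processed for in-cell Western after PFA fixation and detergent permeabilization. BRM degradation was reported as Dmax and DC50.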

[1] = BRM degradation, SW1573 cells, read-out: DC50
[2] = BRM degradation, SW1573 cells, when tested at the top concentration of between 0.3 and 10 μM, read-out: Dmax (%) (% degraded)
[3] = BRM degradation, SW1573 cells, Table 2D, read-out: *DC50
[4] = BRM degradation, SW1573 cells, tested at the top concentration of between 0.3 and 10 μM, read-out: Dmax (%) (% degraded)

T1 sequence (P51531 whole entry): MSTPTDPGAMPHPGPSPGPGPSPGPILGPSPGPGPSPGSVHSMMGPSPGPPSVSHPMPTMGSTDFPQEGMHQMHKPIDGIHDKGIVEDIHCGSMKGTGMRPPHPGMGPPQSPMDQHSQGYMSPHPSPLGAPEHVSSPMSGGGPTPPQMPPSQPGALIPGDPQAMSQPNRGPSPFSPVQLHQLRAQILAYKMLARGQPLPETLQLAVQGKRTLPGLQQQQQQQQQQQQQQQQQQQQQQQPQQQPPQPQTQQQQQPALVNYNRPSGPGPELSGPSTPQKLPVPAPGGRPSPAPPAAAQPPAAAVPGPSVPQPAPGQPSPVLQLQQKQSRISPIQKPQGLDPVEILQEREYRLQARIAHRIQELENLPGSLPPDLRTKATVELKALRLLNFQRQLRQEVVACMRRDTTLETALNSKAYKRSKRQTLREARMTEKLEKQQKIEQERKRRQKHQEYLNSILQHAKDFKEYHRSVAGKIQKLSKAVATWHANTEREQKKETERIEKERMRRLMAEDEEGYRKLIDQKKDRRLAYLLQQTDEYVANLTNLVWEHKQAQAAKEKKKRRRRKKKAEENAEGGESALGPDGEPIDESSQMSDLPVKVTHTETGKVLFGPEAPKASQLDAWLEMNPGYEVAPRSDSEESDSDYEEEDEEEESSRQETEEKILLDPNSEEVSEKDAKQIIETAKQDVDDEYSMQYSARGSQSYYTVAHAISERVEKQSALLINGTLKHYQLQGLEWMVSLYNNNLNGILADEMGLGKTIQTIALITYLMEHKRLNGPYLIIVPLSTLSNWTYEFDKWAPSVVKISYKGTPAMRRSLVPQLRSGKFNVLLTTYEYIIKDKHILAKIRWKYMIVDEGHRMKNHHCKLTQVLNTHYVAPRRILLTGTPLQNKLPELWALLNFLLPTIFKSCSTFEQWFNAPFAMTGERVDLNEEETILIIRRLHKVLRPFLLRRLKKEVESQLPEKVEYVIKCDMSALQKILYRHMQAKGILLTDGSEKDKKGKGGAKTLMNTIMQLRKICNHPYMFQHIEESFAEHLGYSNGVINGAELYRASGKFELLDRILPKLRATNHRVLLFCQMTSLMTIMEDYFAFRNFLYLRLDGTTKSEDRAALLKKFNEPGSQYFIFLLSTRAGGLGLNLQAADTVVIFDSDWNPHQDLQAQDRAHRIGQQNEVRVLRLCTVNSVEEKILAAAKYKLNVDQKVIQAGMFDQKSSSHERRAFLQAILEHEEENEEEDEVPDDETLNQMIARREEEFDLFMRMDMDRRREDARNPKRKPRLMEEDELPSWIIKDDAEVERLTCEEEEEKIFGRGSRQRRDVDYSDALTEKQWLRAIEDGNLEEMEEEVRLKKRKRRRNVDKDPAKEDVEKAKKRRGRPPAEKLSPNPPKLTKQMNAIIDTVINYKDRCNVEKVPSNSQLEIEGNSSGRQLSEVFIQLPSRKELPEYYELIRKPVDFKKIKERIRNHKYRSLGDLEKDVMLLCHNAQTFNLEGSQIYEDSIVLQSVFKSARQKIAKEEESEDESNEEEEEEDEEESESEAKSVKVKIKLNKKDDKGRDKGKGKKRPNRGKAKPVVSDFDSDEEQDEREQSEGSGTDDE

Work on Cc1ncsc1-c1ccc([C@H](C)NC(=O)[C@@H]2C[C@@H](O)CN2C(=O)[C@@H](c2cc(OCC[C@H]3CCN(C[C@H]4C[C@H](Oc5cc(N6C7CCC6CN(c6cc(-c8ccccc8O)nnc6N)C7)ccn5)C4)[C@H](C)C3)no2)C(C)C)cc1 [compound 535, (2S,4R)-1-((2R)-2-(3-(2-((2R,4S)-1-(((1r,3R)-3-((4-(3-(3-amino-6-(2-hydroxyphenyl)pyridazin-4-yl)-3,8-diazabicyclo[3.2.1]octan-8-yl)pyridin-2-yl)oxy)cyclobutyl)methyl)-2-methylpiperidin-4-yl)ethoxy)isoxazol-5-yl)-3-methylbutanoyl)-4-hydroxy-N-((S)-1-(4-(4-methylthiazol-5-yl)phenyl)ethyl)pyrrolidine-2-carboxamide] yielded a DC50 (BRM degradation, read-out: BRM DC50) of under 2.5 nM and a Dmax (SW1573, % degraded, when tested at the top concentration of between 0.3 and 10 μM, read-out: BRM Dmax (%)) of over 75%.

Cc1ncsc1-c1ccc([C@H](C)NC(=O)[C@@H]2C[C@@H](O)CN2C(=O)[C@@H](NC(=O)COCCOCCOCCCCN2CCOC3(CCN(c4cc(-c5ccccc5O)nnc4N)CC3)C2)C(C)(C)C)cc1 [compound 51, (2S,4R)-1-[(2S)-2-(2-[2-[2-(4-[9-[3-amino-6-(2-hydroxyphenyl)pyridazin-4-yl]-1-oxa-4,9-diazaspiro[5.5]undecan-4-yl]butoxy)ethoxy]ethoxy]acetamido)-3,3-dimethylbutanoyl]-4-hydroxy-N-[(1S)-1-[4-(4-methyl-1,3-thiazol-5-yl)phenyl]ethyl]pyrrolidine-2-carboxamide] was tested, and the DC50 [1] was 10 to 30 nM and the Dmax [2] was over 75%.

In the case of Cc1ncsc1-c1cc(F)c([C@@H](C)NC(=O)[C@@H]2C[C@@H](O)CN2C(=O)[C@H](c2cc(OCCN3CCC(O[C@H]4C[C@H](Oc5cc(N6C7CCC6CN(c6cc(-c8ccccc8O)nnc6N)C7)ccn5)C4)CC3)no2)C(C)C)cn1 [compound 542, (2S,4R)-1-((2S)-2-(3-(2-(4-((1r,3S)-3-((4-(3-(3-amino-6-(2-hydroxyphenyl)pyridazin-4-yl)-3,8-diazabicyclo[3.2.1]octan-8-yl)pyridin-2-yl)oxy)cyclobutoxy)piperidin-1-yl)ethoxy)isoxazol-5-yl)-3-methylbutanoyl)-N-((R)-1-(4-fluoro-6-(4-methylthiazol-5-yl)pyridin-3-yl)ethyl)-4-hydroxypyrrolidine-2-carboxamide], the DC50 [3] is reported as over 30 nM.

Compound Cc1ncsc1-c1ccc([C@H](C)NC(=O)[C@@H]2C[C@@H](O)CN2C(=O)[C@H](c2cc(OCCOCCOCCCCN3CCC4(CC3)CCN(c3cc(-c5ccccc5O)nnc3N)CC4)no2)C(C)C)cc1 [compound 67, (2S,4R)-1-((S)-2-(3-(2-(2-(4-(9-(3-amino-6-(2-hydroxyphenyl)pyridazin-4-yl)-3,9-diazaspiro[5.5]undecan-3-yl)butoxy)ethoxy)ethoxy)isoxazol-5-yl)-3-methylbutanoyl)-4-hydroxy-N-((S)-1-(4-(4-methylthiazol-5-yl)phenyl)ethyl)pyrrolidine-2-carboxamide] has a DC50 [1] of over 30 nM.

Cc1ncsc1-c1ccc([C@H](C)NC(=O)[C@@H]2C[C@@H](O)CN2C(=O)[C@H](c2cc(OCCC3CCN(C(=O)[C@H]4C[C@H](Oc5cc(N6C7CCC6CN(c6cc(-c8ccccc8O)nnc6N)C7)ccn5)C4)CC3)no2)C(C)C)cn1 [compound 260, (2S,4R)-1-((2S)-2-(3-(2-(1-((1r,3S)-3-((4-(3-(3-amino-6-(2-hydroxyphenyl)pyridazin-4-yl)-3,8-diazabicyclo[3.2.1]octan-8-yl)pyridin-2-yl)oxy)cyclobutane-1-carbonyl)piperidin-4-yl)ethoxy)isoxazol-5-yl)-3-methylbutanoyl)-4-hydroxy-N-((S)-1-(6-(4-methylthiazol-5-yl)pyridin-3-yl)ethyl)pyrrolidine-2-carboxamide] gave a DC50 [1] of over 30 nM.

For Cc1ncsc1-c1ccc([C@H](C)NC(=O)[C@@H]2C[C@@H](O)CN2C(=O)[C@H](c2cc(N3CCN(CCN4CCC(O[C@H]5C[C@H](Oc6cc(N7C8CCC7CN(c7cc(-c9ccccc9O)nnc7N)C8)ccn6)C5)CC4)CC3)no2)C(C)C)cn1 [compound 401, (2S,4R)-1-((2S)-2-(3-(4-(2-(4-((1r,3r)-3-((4-(3-(3-amino-6-(2-hydroxyphenyl)pyridazin-4-yl)-3,8-diazabicyclo[3.2.1]octan-8-yl)pyridin-2-yl)oxy)cyclobutoxy)piperidin-1-yl)ethyl)piperazin-1-yl)isoxazol-5-yl)-3-methylbutanoyl)-4-hydroxy-N-((S)-1-(6-(4-methylthiazol-5-yl)pyridin-3-yl)ethyl)pyrrolidine-2-carboxamide], the DC50 (degradation of BRM, read-out: BRM DC50) was over 30 nM.

For Cc1ncsc1-c1ccc([C@H](C)NC(=O)[C@@H]2C[C@@H](O)CN2C(=O)[C@H](c2cc(OCCCN3CCC(O[C@H]4C[C@H](Oc5cc(N6C7CCC6CN(c6cc(-c8ccccc8O)nnc6N)C7)ccn5)C4)CC3)no2)C(C)C)cc1 [compound 217, (2S,4R)-1-((2S)-2-(3-(3-(4-((1r,3S)-3-((4-(3-(3-amino-6-(2-hydroxyphenyl)pyridazin-4-yl)-3,8-diazabicyclo[3.2.1]octan-8-yl)pyridin-2-yl)oxy)cyclobutoxy)piperidin-1-yl)propoxy)isoxazol-5-yl)-3-methylbutanoyl)-4-hydroxy-N-((S)-1-(4-(4-methylthiazol-5-yl)phenyl)ethyl)pyrrolidine-2-carboxamide], the DC50 [1] was 2.5 to 10 nM and the Dmax [4] was over 75%.

Work on Cc1ncsc1-c1cnc([C@H](C)NC(=O)[C@@H]2C[C@@H](O)CN2C(=O)[C@H](c2cc(OCCN3CCC(O[C@H]4C[C@H](Oc5cc(N6C7CCC6CN(c6cc(-c8ccccc8O)nnc6N)C7)ccn5)C4)CC3)no2)C(C)C)cn1 [compound 490, (2S,4R)-1-((2S)-2-(3-(2-(4-((1r,3S)-3-((4-(3-(3-amino-6-(2-hydroxyphenyl)pyridazin-4-yl)-3,8-diazabicyclo[3.2.1]octan-8-yl)pyridin-2-yl)oxy)cyclobutoxy)piperidin-1-yl)ethoxy)isoxazol-5-yl)-3-methylbutanoyl)-4-hydroxy-N-((S)-1-(5-(4-methylthiazol-5-yl)pyrazin-2-yl)ethyl)pyrrolidine-2-carboxamide] yielded a DC50 (target protein degradation, read-out: BRM DC50) of over 30 nM.

COc1cc(C(C(=O)N2C[C@H](O)C[C@H]2C(=O)N[C@@H](C)c2ccc(-c3scnc3C)cc2)C(C)CC(=O)N(C)CCOc2cc(N3C4CCC3CN(c3cc(-c5ccccc5O)nnc3N)C4)ccn2)on1 (stereo partly drawn) [compound 289, (2S,4R)-1-(5-((2-((4-(3-(3-amino-6-(2-hydroxyphenyl)pyridazin-4-yl)-3,8-diazabicyclo[3.2.1]octan-8-yl)pyridin-2-yl)oxy)ethyl)(methyl)amino)-2-(3-methoxyisoxazol-5-yl)-3-methyl-5-oxopentanoyl)-4-hydroxy-N-((S)-1-(4-(4-methylthiazol-5-yl)phenyl)ethyl)pyrrolidine-2-carboxamide] gave a DC50 [1] of over 30 nM.

Cc1ncsc1-c1ccc([C@H](C)NC(=O)[C@@H]2C[C@@H](O)CN2C(=O)[C@@H](c2cc(OCCN3CC[C@H](OCCc4cc(N5C6CCC5CN(c5cc(-c7ccccc7O)nnc5N)C6)ccn4)C[C@@H]3C)no2)C(C)C)cc1 (racemic) [compound 568, (2S,4R)-1-((2R)-2-(3-(2-((2S,4S)-4-(2-(4-(3-(3-amino-6-(2-hydroxyphenyl)pyridazin-4-yl)-3,8-diazabicyclo[3.2.1]octan-8-yl)pyridin-2-yl)ethoxy)-2-methylpiperidin-1-yl)ethoxy)isoxazol-5-yl)-3-methylbutanoyl)-4-hydroxy-N-((S)-1-(4-(4-methylthiazol-5-yl)phenyl)ethyl)pyrrolidine-2-carboxamide] was tested, and the Dmax (BRM degradation, SW1573 cells, Table 2D, read-out: **Dmax (%) (% degraded)) was over 75% and the DC50 [3] was under 2.5 nM.

With Cc1ncsc1-c1ccc([C@H](C)NC(=O)[C@@H]2C[C@@H](O)CN2C(=O)[C@@H](c2cc(OCCOc3ccc(C(C)n4cc(-c5cc(-c6ccccc6O)nnc5N)cn4)cc3)no2)C(C)C)cc1 (stereo partly drawn) [compound 81, (2S,4R)-1-((2R)-2-(3-(2-(4-(1-(4-(3-amino-6-(2-hydroxyphenyl)pyridazin-4-yl)-1H-pyrazol-1-yl)ethyl)phenoxy)ethoxy)isoxazol-5-yl)-3-methylbutanoyl)-4-hydroxy-N-((S)-1-(4-(4-methylthiazol-5-yl)phenyl)ethyl)pyrrolidine-2-carboxamide] the DC50 [1] was under 2.5 nM and the Dmax [2] was over 75%.

For Cc1ncsc1-c1ccc([C@H](C)NC(=O)[C@@H]2C[C@@H](O)CN2C(=O)[C@H](c2cc(O[C@H]3C[C@H](CN4CCC(O[C@H]5C[C@H](Oc6cc(N7C8CCC7CN(c7cc(-c9ccccc9O)nnc7N)C8)ccn6)C5)CC4)C3)no2)C(C)C)cc1 [compound 241, (2S,4R)-1-((2S)-2-(3-((1R,3S)-3-((4-((1r,3R)-3-((4-(3-(3-amino-6-(2-hydroxyphenyl)pyridazin-4-yl)-3,8-diazabicyclo[3.2.1]octan-8-yl)pyridin-2-yl)oxy)cyclobutoxy)piperidin-1-yl)methyl)cyclobutoxy)isoxazol-5-yl)-3-methylbutanoyl)-4-hydroxy-N-((S)-1-(4-(4-methylthiazol-5-yl)phenyl)ethyl)pyrrolidine-2-carboxamide], the DC50 [1] was 2.5 to 10 nM and the Dmax [4] was over 75%.

In the case of Cc1ncsc1-c1ccc([C@H](C)NC(=O)[C@@H]2C[C@@H](O)CN2C(=O)C(c2cc(OCCN3[C@H](C)C[C@H](O[C@H]4C[C@H](Oc5cc(N6C7CCC6CN(c6cc(-c8ccccc8O)nnc6N)C7)ccn5)C4)C[C@@H]3C)no2)C(C)C)cc1 (mixture of isomers) [compound 635, (2S,4R)-1-(2-(3-(2-((2S,4S,6R)-4-((1r,3R)-3-((4-(3-(3-amino-6-(2-hydroxyphenyl)pyridazin-4-yl)-3,8-diazabicyclo[3.2.1]octan-8-yl)pyridin-2-yl)oxy)cyclobutoxy)-2,6-dimethylpiperidin-1-yl)ethoxy)isoxazol-5-yl)-3-methylbutanoyl)-4-hydroxy-N-((S)-1-(4-(4-methylthiazol-5-yl)phenyl)ethyl)pyrrolidine-2-carboxamide], the DC50 [1] is reported as under 2.5 nM and the Dmax (BRM degradation, SW1573 cells, read-out: Dmax (% degraded)) is reported as over 75%.
